The values that follow come from patent publication US20160368919A1, “NOVEL PYRIDINE PYRAZINONES AS BET-FAMILY BROMODOMAIN INHIBITORS” (Pfizer Inc., priority 2015, published 2016).

One test addresses T1, BRD4 BD1 (Homo sapiens, UniProt O60885).
T1 construct: His-tagged BRD4 BD1 (44-160); made in house
The test is described as follows: BRD4 BD1 Fluorescence Polarization (FP) competition binding assay. As to conditions: BRD4 BD1 40 nM, probe PFI-411FP 2 nM. How it is done:
Compound binding to BRD4 BD1 was assessed with a FP competition binding assay. […] All assay components were diluted in 50 mM HEPES pH 7.4 containing 0.08% bovine serum albumin (assay buffer). To start the assay, 8 μL of BRD4 BD1 was added to each well of a low volume 384-well black flat bottom microtiter plate (Corning 3820) containing 4 μl of various concentrations of test compound (each plate also contained positive and negative control wells to define the upper and lower limits of the assay signal). After addition of BRD4 BD1, the assay plate was incubated at room temperature (RT, 20° C.). After 15 minutes, 4 μL of PFI-411FP was added to each well and the assay plate was placed in the dark at RT. The final assay concentration (FAC) of PFI-411FP was 2 nM, the FAC of BRD4 BD1 was 40 nM, the FAC of test compound ranged from 120 to 0.0012 μM and the FAC of DMSO was 0.4%. After 60 min, polarization values were measured with an Envision 2103 multilabel reader (Perkin Elmer) using a Cy5 dual enhanced mirror and excitation at 620 nm and emission at 688 nm. The percent (%) effect was calculated for each concentration of test compound and was relative to the amount of polarization signal produced by the positive and negative control wells contained within each assay plate. The concentrations and % effect values for test compounds were plotted versus each other with a proprietary curve fitting program using a four-parameter logistic dose response equation and the concentration of compound required for 50% effect (IC50) was determined. The Ki values of competitive inhibitors were calculated using the equation described by Nikolovska-Coleska et al. (Development and optimization of a binding assay for the XIAP BIR3 domain using fluorescence polarization. Analytical Biochemistry (2004) 332: 261-273).
(Fluorescence polarisation rises when a labelled molecule tumbles more slowly, as on binding a larger partner.)

The test system of test [1] is LPS-induced IL-6 production in human whole blood. In words: IL-6 human whole blood (HWB) assay, LPS-stimulated, HTRF detection. As to conditions: 1 ng/ml LPS, 4 hours. The format is cell-based. How it is done: Compound effect on IL-6 production was determined using lipopolysaccharide (LPS)-stimulated human whole blood and an HTRF (Homogeneous Time-Resolved Fluorescence) IL-6 detection kit (Human IL6 HTRF Assay CisBio 62IL6PEC). HWB was collected by venous puncture from healthy donors, transferred to a 50 ml polypropylene tube containing sodium heparin (14.3 units per mL of HWB) and then placed in a 37° C. water bath until use. To start the assay, 80 μL of heparin-treated HWB containing 1 ng/ml of LPS (equivalent to LPS ˜EC80 with regard to stimulation of IL-6 production in HWB under these assay conditions) was added to each well of a 384-well, sterile, endotoxin-free, polypropylene plate (Greiner 781281) containing 160 nL of various concentrations of test compound (each plate also contained positive and negative control wells to define the upper and lower limits of the assay signal). The plate was then placed in a thermoshaker incubator set to 370C (Boekel 270440). The final assay concentration (FAC) of test compound ranged from 60 to 0.0006 μM and the FAC of DMSO was 0.2%. After 4 hours, the assay plate was removed from the incubator and centrifuged at 700×g for 10 minutes. 5 μL of the resulting upper plasma layer was removed from each well and diluted 1:2 with 1×Dulbecco's phosphate buffered saline (DPBS). 5 μL of this diluted plasma was then transferred to a white 384-well low volume assay plate (Greiner 784080) containing 5 μL of combined anti-IL-6-Cryptate and anti-IL-6-XL665 detection antibodies (per manufacturer's protocol). The plate was then sealed with a Top Seal (Perkin Elmer 6005185) and incubated at room temperature (RT, 20° C.). After 16-18 hrs (overnight), the HTRF assay signal was read on an Envision 2103 plate reader using a Lance Delfia Dual/Bias mirror TRF laser excitation and emission was measured at 665 nm and 615 nm respectively. The percent (%) effect was calculated for each concentration of test compound and was relative to the amount of HTRF signal produced by the positive and negative control wells contained within each assay plate. The concentrations and % effect values for test compounds were plotted versus each other with a proprietary curve fitting program using a four-parameter logistic dose response equation and the concentration of compound required for 50% effect (IC50) was determined.
Background: In TR-FRET formats the signal depends on donor and acceptor labels being close together.

In general, IC50 refers to the concentration at which inhibition is half-maximal. As to `COc1ccccc1[C@H](C)n1c(=O)c(NCCC(=O)O)nc2ccc(N(C)C(C)=O)nc21` [Example 1, N-{6-[acetyl(methyl)amino]-4-[(1S)-1-(2-methoxyphenyl)ethyl]-3-oxo-3,4-dihydropyrido[2,3-b]pyrazin-2-yl}-beta-alanine], the results for the IC50 (at BRD4 BD1; in test [1]) were 0.73 µM and 38.4 µM, respectively.
Turning to `CCN(C(C)=O)c1ccc2nc(NCCC(=O)O)c(=O)n([C@@H](C)c3ccccc3OC)c2n1` [Example 2, N-{6-[acetyl(ethyl)amino]-4-[(1S)-1-(2-methoxyphenyl)ethyl]-3-oxo-3,4-dihydropyrido[2,3-b]pyrazin-2-yl}-beta-alanine], the IC50 at BRD4 BD1 stood at 2.71 µM.
For `CC[C@@H](c1ccccc1)n1c(=O)c(NCCC(=O)O)nc2ccc(N(C)C(C)=O)nc21` [Example 3, N-{6-[acetyl(methyl)amino]-3-oxo-4-[(1S)-1-phenylpropyl]-3,4-dihydropyrido[2,3-b]pyrazin-2-yl}-beta-alanine], the figures for the IC50 (on BRD4 BD1; in test [1]) were 0.117 µM and 2.05 µM, respectively.
For the compound `CC[C@@H](c1ccccc1)n1c(=O)c(NCCC(=O)O)nc2ccc(N(C)C(=O)CO)nc21` [Example 4, N-{6-[(hydroxyacetyl)(methyl)amino]-3-oxo-4-[(1S)-1-phenylpropyl]-3,4-dihydropyrido[2,3-b]pyrazin-2-yl}-beta-alanine], the half-inhibitory concentration (IC50) on BRD4 BD1 stood at 0.956 µM; in test [1] it was 14.1 µM.
As to `CNc1nc2ccc(N(C)C(C)=O)nc2n([C@@H](C)c2ccccc2OC)c1=O` [Example 5, N-{4-[(1S)-1-(2-methoxyphenyl)ethyl]-2-(methylamino)-3-oxo-3,4-dihydropyrido[2,3-b]pyrazin-6-yl}-N-methylacetamide], the figures for the IC50 (on BRD4 BD1; in test [1]) were 0.653 µM and 1.58 µM, respectively.
For the compound `CC[C@@H](c1ccccc1)n1c(=O)c(NCCC(=O)O)nc2ccc(N(C)C(=O)C(C)C)nc21` [Example 6, N-{6-[methyl(2-methylpropanoyl)amino]-3-oxo-4-[(1S)-1-phenylpropyl]-3,4-dihydropyrido[2,3-b]pyrazin-2-yl}-beta-alanine], the concentration for half-maximal inhibition (IC50) at BRD4 BD1 amounted to 0.155 µM; in test [1], 1.42 µM.
For `CCCC(=O)N(C)c1ccc2nc(NCCC(=O)O)c(=O)n([C@@H](CC)c3ccccc3)c2n1` [Example 7, N-{6-[butanoyl(methyl)amino]-3-oxo-4-[(1S)-1-phenylpropyl]-3,4-dihydropyrido[2,3-b]pyrazin-2-yl}-beta-alanine], in that order: 0.13 µM and 2.39 µM.
For `CC[C@@H](c1ccccc1)n1c(=O)c(NCCC(=O)O)nc2ccc(N(C)C(=O)C3CCC3)nc21` [Example 8], in that order: 0.122 µM and 1.8 µM.
On to `CC[C@@H](c1ccccc1)n1c(=O)c(NCCC(=O)O)nc2ccc(N(C)C(=O)NC)nc21` [Example 9, N-{6-[methyl(methylcarbamoyl)amino]-3-oxo-4-[(1S)-1-phenylpropyl]-3,4-dihydropyrido[2,3-b]pyrazin-2-yl}-beta-alanine], for which the half-inhibitory concentration (IC50) on BRD4 BD1 is 0.15 µM; in test [1], 3.83 µM.
Consider `CCC(=O)N(C)c1ccc2nc(NCCC(=O)O)c(=O)n([C@@H](CC)c3ccccn3)c2n1` [Example 11, N-{6-[methyl(propanoyl)amino]-3-oxo-4-[(1S)-1-(pyridin-2-yl)propyl]-3,4-dihydropyrido[2,3-b]pyrazin-2-yl}-beta-alanine], for which the IC50 at BRD4 BD1 was found to be 0.251 µM; in test [1], 2.68 µM.
Consider `CCC(=O)N(C)c1ccc2nc(NCCC(=O)O)c(=O)n([C@@H]3COC[C@H]3c3ccccc3)c2n1` [Example 15, N-{6-[methyl(propanoyl)amino]-3-oxo-4-[(3S,4S)-4-phenyltetrahydrofuran-3-yl]-3,4-dihydropyrido[2,3-b]pyrazin-2-yl}-beta-alanine], for which the 50% inhibitory concentration (IC50) on BRD4 BD1 was 10.2 µM.
With `CC[C@H](COC)n1c(=O)c(NCCC(=O)O)nc2ccc(N(C)C(C)=O)nc21` [Example 16, N-{6-[acetyl(methyl)amino]-4-[(2R)-1-methoxybutan-2-yl]-3-oxo-3,4-dihydropyrido[2,3-b]pyrazin-2-yl}-beta-alanine], the 50% inhibitory concentration (IC50) at BRD4 BD1 was 3.88 µM.
The compound `CCC(=O)N(C)c1ccc2nc(NCC(=O)NC)c(=O)n([C@H](CC)COC)c2n1` [Example 18, N-(4-[(2R)-1-methoxybutan-2-yl]-2-{[2-(methylamino)-2-oxoethyl]amino}-3-oxo-3,4-dihydropyrido[2,3-b]pyrazin-6-yl)-N-methylpropanamide] had an IC50 at BRD4 BD1 of 4.19 µM.
Regarding `CCC(=O)N(C)c1ccc2nc(NCC(=O)NC)c(=O)n(C(COC)COC)c2n1` [Example 19, N-(4-(1,3-dimethoxypropan-2-yl)-2-((2-(methylamino)-2-oxoethyl)amino)-3-oxo-3,4-dihydropyrido[2,3-b]pyrazin-6-yl)-N-methylpropionamide], the IC50 on BRD4 BD1 worked out at 4.03 µM.
Compound `CCC(=O)N(C)c1ccc2nc(NCCC(=O)O)c(=O)n(C3(C4CCCC4)CC3)c2n1` [Example 24, N-{4-(1-cyclopentylcyclopropyl)-6-[methyl(propanoyl)amino]-3-oxo-3,4-dihdropyrido[2,3-b]pyrazin-2-yl}-beta-alanine] yielded an IC50 on BRD4 BD1 of 1.58 µM.
`CC[C@@H](c1ccccc1)n1c(=O)c(NCCC(=O)O)nc2ccc(N(C)C(=O)C3CC(C)(C)C3)nc21` [Example 25, N-(6-{[(3,3-dimethylcyclobutyl)carbonyl](methyl)amino}-3-oxo-4-[(1S)-1-phenylpropyl]-3,4-dihydropyrido[2,3-b]pyrazin-2-yl)-beta-alanine]: the half-inhibitory concentration (IC50) on BRD4 BD1 came out at 6.37 µM. Compared with the last compound, the IC50 is about 4-fold higher.
In the case of `CC[C@@H](c1ccccc1)n1c(=O)c(NCCC(=O)O)nc2ccc(N(C)C(=O)C3CC(F)(F)C3)nc21` [Example 26, N-(6-{[(3,3-difluorocyclobutyl)carbonyl](methyl)amino}-3-oxo-4-[(1S)-1-phenylpropyl]-3,4-dihydropyrido[2,3-b]pyrazin-2-yl)-beta-alanine], the IC50 on BRD4 BD1 is 7.59 µM.
With `CC[C@@H](c1ccccc1)n1c(=O)c(NCCC(=O)O)nc2ccc(N(C)C(=O)C3COC3)nc21` [Example 27, N-{6-[methyl(oxetan-3-ylcarbonyl)amino]-3-oxo-4-[(1S)-1-phenylpropyl]-3,4-dihydropyrido[2,3-b]pyrazin-2-yl}-beta-alanine], on BRD4 BD1, the half-inhibitory concentration (IC50) is 1.5 µM.
Turning to `CCOc1ccccc1Cn1c(=O)c(NCCN2CCOCC2)nc2ccc(-c3c(C)noc3C)nc21` [Example 36, 6-(3,5-dimethyl-1,2-oxazol-4-yl)-4-(2-ethoxybenzyl)-2-{[2-(morpholin-4-yl)ethyl]amino}pyrido[2,3-b]pyrazin-3(4H)-one], on BRD4 BD1, the concentration for half-maximal inhibition (IC50) was 2.48 µM.
On BRD4 BD1, `Cc1noc(C)c1-c1ccc2nc(NCCN3CCOCC3)c(=O)n(Cc3ccccc3)c2n1` [Example 37, 4-benzyl-6-(3,5-dimethyl-1,2-oxazol-4-yl)-2-{[2-(morpholin-4-yl)ethyl]amino}pyrido[2,3-b]pyrazin-3(4H)-one] yielded an IC50 of 0.474 µM.
For `CC[C@H](c1ccccc1)n1c(=O)c(NCCN2CCOCC2)nc2ccc(-c3c(C)noc3C)nc21` [Example 38, 6-(3,5-dimethyl-1,2-oxazol-4-yl)-2-{[2-(morpholin-4-yl)ethyl]amino}-4-[(1R)-1-phenylpropyl]pyrido[2,3-b]pyrazin-3(4H)-one], at BRD4 BD1, the IC50 is 0.532 µM.
The same measure, in the same setting: then `Cc1noc(C)c1-c1ccc2nc(NCCC(=O)O)c(=O)n(C3CCOCC3)c2n1` [Example 49, N-[6-(3,5-dimethyl-1,2-oxazol-4-yl)-3-oxo-4-(tetrahydro-2H-pyran-4-yl)-3,4-dihydropyrido[2,3-b]pyrazin-2-yl]-beta-alanine], with 4.87 µM.
